Laboratory results taken from patent publication US20170128459A1, “PHARMACEUTICAL COMPOSITION CONTAINING SIRT2 INHIBITOR” (Industrial Cooperation Foundation Chonbuk National …, priority 2014, published 2017).

Legend:
[1] = tested on: mouse proximal tubule cells; assay: Cell proliferation test (XTT); assay type: cell-based; settings: 24 hours, 1% FBS
Procedure: Specifically, the cell proliferation test was performed by treating mouse proximal tubule cells with trypsin, the cells were put in a 96-well plate at 1×10^3 cells for each well, cultured for 24 hours at 37° C., the culture medium was removed, and each of AGK2, AK-1, cisplatin, cisplatin+AGK2, and cisplatin+AK-1 was treated with a culture medium containing 1% FBS. After culturing for 24 hours at 37° C., the degree of cell proliferation was measured using a cell proliferation kit (Cell proliferation Kit II, XTT, Roche, Mannheim, Germany). As cells proliferate, the amount of color-developing material of mitochondria within cells increases, and thus the absorbance increases. Therefore, the proliferation of the mouse proximal tubule cells was determined based on the absorbance, and the results are provided in FIG. 34.

CXCL2 = CXCL2 mRNA expression by qRT-PCR in LPS-treated mouse proximal tubule cells; assay type: cell-based; settings: AK-1 10 μM 30 minutes prior to 1-hour LPS (10 μg/ml); compared with LPS-increased expression
Procedure: (§1) Mouse proximal tubule cells, which were donated by Dr Lloyd G. Cantley (Yale University School of Medicine, New Haven, Conn., US), were prepared by culturing, in an α-MEM medium containing added fetal bovine serum at 10% (vol/vol), under conditions including a humidified atmospheric condition of 5% CO2 and 95% air and a temperature condition of 37° C.
(§2) To remove the SIRT2 gene from the cells, siRNA (100 pmol, Dharmacon ON-TARGETplus SMARTpool, Dharmacon Inc., CO, US) and 10 μl Lipofectamine® 2000 (Invitrogen™, Carlsbad, Calif., US) were diluted in an Opti-MEM medium for the cell treatment, and, 7 hours later, the cells were transferred into a cell culture medium for cell culture. 2 days after the initiation of the cell culture, the cells were collected and a decrease in an SIRT2 protein was observed therefrom.
1, 3, and 6 hours after the treatment with the LPS and the CB following the SIRT2 siRNA treatment, the cell culture medium, RNA, and proteins were collected to perform quantitative real-time PCR (qRT-PCR) and an enzyme linked immunosorbent assay. […]
(§3) Mouse proximal tubule cells were treated with AK-1 (10 μM), which is an SIRT2 inhibitor, 30 minutes prior to a 1-hour treatment with an LPS (10 μg/ml). The cells were collected and CXCL2 and CCL2 mRNA expression levels thereof were determined through qRT-PCR.

[2] = tested on: mouse proximal tubule cells; assay: Cell damage caused by cisplatin (number of adhesion cells, microscopy); assay type: cell-based
Procedure: To confirm if an SIRT2 inhibitor has an effect of inhibiting cell damage caused by cisplatin, the effects of AGK2 and AK-1, which are SIRT2 inhibitors, when the mouse proximal tubule cells were treated with cisplatin were examined. Specifically, mouse proximal tubule cells were treated with AGK2 (10 μM) and AK-1 (10 μM), which are SIRT2 inhibitors, 30 minutes prior to being treated with cisplatin (20 μg/ml) for 48 hours, and the cells were visualized by a Zeiss Z1 microscope.

CCL2 = CCL2 mRNA expression by qRT-PCR in LPS-treated mouse proximal tubule cells; assay type: cell-based; settings: AK-1 10 μM 30 minutes prior to 1-hour LPS (10 μg/ml); compared with LPS-increased expression
Procedure: as §1, §2
1, 3, and 6 hours after the treatment with the LPS and the CB following the SIRT2 siRNA treatment, the cell culture medium, RNA, and proteins were collected to perform quantitative real-time PCR (qRT-PCR) and an enzyme linked immunosorbent assay.
The CCL2 expression pattern was observed by the method of Example 4.
as §3

acetyl p53 = assay: Western blot of acetyl p53 in kidney tissues after cisplatin; assay type: in vivo; settings: kidney of mouse having SIRT2 treated with cisplatin
Procedure: (§4) Generally, kidney injuries caused by cisplatin are affected by apoptosis. To determine the effect of SIRT2 gene knockout on controlling apoptosis caused by cisplatin, the acetylation of caspase-3 and p53 was observed through western blotting.
(§5) Kidney tissues were obtained by the method of the above Example 9-2 and then were homogenized to extract proteins therefrom, and the caspase-3 and acetyl p53 protein expression patterns were determined using caspase-3 and acetyl p53 antibodies (Cell Signaling Technology, Danvers, Mass. US). The same blots were peeled off to determine the exact amount of proteins using actin (Sigma-Aldrich Co. LLC., St Louis, Mo., US) and p53 (Cell Signaling Technology, Inc.).

ICAM-1 = assay: Western blot of ICAM-1 in kidney tissues after cisplatin; assay type: in vivo, mouse; settings: kidney tissues of WT mice administered cisplatin
Procedure: (§6) An investigation was performed to see if the expression of ICAM-1 and VCAM-1 genes, which are molecules related to inflammatory response, in an experimental group administered cisplatin is regulated by an SIRT2 gene. Western blotting was performed by the method of the above Example 11, using ICAM-1 (Santa Cruz Biotechnology, Santa Cruz, Calif., US) and VCAM-1 (Santa Cruz Biotechnology, Santa Cruz, Calif., US) antibodies.

VCAM-1 = assay: Western blot of VCAM-1 in kidney tissues after cisplatin; assay type: in vivo, mouse; settings: kidney tissues of WT mice administered cisplatin
Procedure: as §6

caspase-3 = assay: Western blot of caspase-3 in kidney tissues after cisplatin; assay type: in vivo, mouse; settings: kidney tissues of WT mice administered cisplatin
Procedure: as §4, §5

[3] = Survival rate after cisplatin administration; assay type: in vivo, mouse; settings: control group (SIRT2+/+) administered cisplatin
Excerpt: Based on the result, it can be seen that the knocking out an SIRT2 gene inhibits kidney injuries caused by cisplatin.

[4] = used together with cisplatin, compared with cisplatin alone
[5] = SIRT2 inhibitor 10 μM 30 minutes prior to cisplatin 20 μg/ml for 48 hours, compared with cisplatin alone

O=C(Nc1cccc([N+](=O)[O-])c1)c1cccc(S(=O)(=O)N2CCCCCC2)c1 [AK-1]
cell proliferation (XTT absorbance) [1, 4]: significantly increased
CXCL2 mRNA expression level (CXCL2): decrease
number of adhesion cells [2, 5]: significantly increased
CCL2 mRNA expression level (CCL2): decrease

N.N.[Cl][Pt][Cl] [cisplatin, cis-diammine-dichloroplatinum [II]]
cell proliferation (XTT absorbance) ([1]; cisplatin alone): decreased
number of adhesion cells ([2]; cisplatin 20 μg/ml for 48 hours alone): decreased
p53 acetylation (acetyl p53): increased
ICAM-1 expression (ICAM-1): increased
VCAM-1 expression (VCAM-1): increased
cleaved caspase-3 expression (caspase-3): increased
survival [3]: all mice died in 6 days

O=C(Nc1cccc2ncccc12)/C(O)=C/c1ccc(-c2cc(Cl)ccc2Cl)o1 [AGK2]
cell proliferation (XTT absorbance) [1, 4]: significantly increased
number of adhesion cells [2, 5]: significantly increased
